Laboratory results reported in patent US10519446B2, “Organic compounds to treat hepatitis B virus” (priority 2013, dated 2019).
Like-named read-outs stand apart in the source and are kept apart here.

How the values were obtained:
HBV = test: Efficacy of HBV RNAi agents in HepG2.2.15 cells in vitro (sAg KD); format: cell-based, Hepatitis B Virus; details: for Max % KD, EXPERIMENT 1 / Max % KD, EXPERIMENT 2: percent knockdown; for Percent sAg remaining at maximum knockdown: percent residual gene activity
Description: Table 9. Efficacy of HBV RNAi agents.
The efficacy of various HBV RNAi agents was tested in HepG2.2.15 cells in vitro. 10 μM was used. […] It is noted that, due to the nature of the HepG2.2.15 cell line, it is difficult to achieve greater than 50% knockdown.

FVII (Factor VII) = test: RNA interference against FVII by 19-mer siRNAs with 3′ end caps (FIG. 2); design: species or system mouse; details: mF7-III 19-mer blunt-ended, A12S17
[1] = Serum stability of siRNAs with 3′ end caps in mouse serum; format: in vitro ADME; details: 100% mouse serum; 37° C.; up to 24 h; gel, SYBR gold
[2] = Serum stability of siRNAs with 3′ end caps in human serum; format: in vitro ADME; details: 100% human serum; 37° C.; up to 24 h; gel, SYBR gold
[3] = Experiment 2, HepG2.2.15 cells, nM printed only at the Experiment 1 and AVERAGE EC50 heads, read-out: EC50, EXPERIMENT 2
[4] = HepG2.2.15 cells in vitro, Experiment 1, read-out: EC50 (nM), EXPERIMENT 1
[5] = average of Experiments 1 and 2, read-out: EC50 (nM), AVERAGE

Compound	Max % KD, EXPERIMENT 1 (HBV; Experiment 1, HepG2.2.15 cells) [%]	Percent sAg remaining at maximum knockdown (HBV; Experiment 1, HepG2.2.15 cells) [%]	EC50 (HBV; [3]) [nM]	Max % KD, EXPERIMENT 2 (HBV; Experiment 2, HepG2.2.15 cells) [%]	Percent sAg remaining at maximum knockdown (HBV; Experiment 2, HepG2.2.15 cells) [%]	EC50 (HBV; [4]) [nM]	Max % KD, AVERAGE (HBV; average of Experiments 1 and 2) [%]	EC50 (HBV; [5]) [nM]	RNA interference against FVII (FVII (Factor VII))	stability in mouse serum [1]	stability in human serum [2]
3: "HBV RNAi agents numbered 1 to 10"; "The RNAi agents used are listed in Table 8E" (18-mer format) (sense CCAUACUGCGGAACUCCUA; antisense UAGGAGUUCCGCAGUAUGG; chemistry not given here) [Number 3]	49.8	50.2	0.016	38.7	61.3	0.111	44.25	0.06			
4: "HBV RNAi agents numbered 1 to 10"; "The RNAi agents used are listed in Table 8E" (18-mer format) (sense GAGGCUGUAGGCAUAAAUU; antisense AAUUUAUGCCUACAGCCUC; chemistry not given here) [Number 4]	43.3	56.7	0.056	48.6	51.4	0.017	45.95	0.04			
5: "One sequence used was designated siHBV_1599_18mer_CAM, and corresponds to Number 5 in Table 8E" (sense CCGUGUGCACUUCGCUUCA; antisense UGAAGCGAAGUGCACACGG; chemistry not given here)	41.3	58.7	0.013	37.8	62.2	0.127	39.55	0.07			
6: "HBV RNAi agents numbered 1 to 10"; "The RNAi agents used are listed in Table 8E" (18-mer format) (sense GGCUGUAGGCAUAAAUUGG; antisense CCAAUUUAUGCCUACAGCC; chemistry not given here) [Number 6]	37.3	62.7	0.13	39	61	0.008	38.15	0.07			
7: "HBV RNAi agents numbered 1 to 10"; "The RNAi agents used are listed in Table 8E" (18-mer format) (sense GCUGUAGGCAUAAAUUGGU; antisense ACCAAUUUAUGCCUACAGC; chemistry not given here) [Number 7]	41.5	58.5	0.409	40.3	59.7	0.038	40.9	0.22			
8: "HBV RNAi agents numbered 1 to 10"; "The RNAi agents used are listed in Table 8E" (18-mer format) (sense CAGCAAUGUCAACGACCGA; antisense UCGGUCGUUGACAUUGCUG; chemistry not given here) [Number 8]	37.5	62.5	0.177	57.8	42.2	0.025	47.65	0.1			
9: "HBV RNAi agents numbered 1 to 10"; "The RNAi agents used are listed in Table 8E" (18-mer format) (sense GGAGGCUGUAGGCAUAAAU; antisense AUUUAUGCCUACAGCCUCC; chemistry not given here) [Number 9]	48.8	51.2	0.67	50	50	0.131	49.4	0.4			
10: "HBV RNAi agents numbered 1 to 10"; "The RNAi agents used are listed in Table 8E" (18-mer format) (sense GAGAUUAGGUUAAAGGUCU; antisense AGACCUUUAACCUAAUCUC; chemistry not given here) [Number 10]	57.3	42.7	0.437	50.9	49.1	0.066	54.1	0.25			
11: "An 18-mer ... with the sequences of Number 11E in Table 10"; "an additional HBV RNAi agent, HBV 279" (sense GGUUCUUCUGGAUUAUCAA; antisense UUGAUAAUCCAGAAGAACC; chemistry not given here)	65.39	34.61	0.105	54	46	0.039	59.695	0.07			
12: "Twelve of the best HBV RNAi agents identified are listed below, in various formats, in Tables 8A-8E, 9 and 10" (sense GGACUUCUCUCAAUUUUCU; antisense AGAAAAUUGAGAGAAGUCC; chemistry not given here) [Number 12]	36.89	63.11				0.093	36.89	0.093			
C1C2CC3CC1CC(C2)C3 [Adamantane]									allow the RNAi agent to perform RNA interference		
c1ccc(-c2ccccc2)cc1 [Biphenyl]									allow the RNAi agent to perform RNA interference	increased stability	increased stability
OCCOCCOCCO [Triethylene glycol]									allow the RNAi agent to perform RNA interference		
OCCOCCOCCO [glycol, triethylene glycol]										increased stability	increased stability
C[C@H](CCC(=O)O)[C@H]1CC[C@H]2[C@@H]3CC[C@@H]4C[C@H](O)CC[C@]4(C)[C@H]3CC[C@]12C [lithochol, lithocholic acid]										increased stability	less stable
